Measurements taken from ChEMBL document CHEMBL4024794 (J Med Chem, 2018).
Calls of active or inactive are those of the source. The rule behind the calls is not given here.

Legend:
[1] = biological target: T1, Nicotinamide N-methyltransferase (Homo sapiens, UniProt P40261); experiment: Inhibition of human NNMT (1 to 264 residues) expressed in Escherichia coli BL21 (DE3) using nicotinamide/SAM as substrate/co-factor measured for 20 mins by SAHH-coupled fluorescent assay
T1 sequence (P40261 whole entry): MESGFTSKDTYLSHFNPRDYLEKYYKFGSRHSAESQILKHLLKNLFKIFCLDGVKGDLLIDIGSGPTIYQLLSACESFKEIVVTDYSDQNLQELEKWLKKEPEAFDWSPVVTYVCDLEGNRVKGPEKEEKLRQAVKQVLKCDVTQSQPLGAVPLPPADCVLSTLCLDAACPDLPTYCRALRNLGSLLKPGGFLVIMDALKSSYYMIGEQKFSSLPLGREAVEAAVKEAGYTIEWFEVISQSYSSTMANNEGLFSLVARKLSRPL

[2] = biological target: T2, Nicotinamide N-methyltransferase (Homo sapiens) (UniProt P40261)
T2 sequence (whole entry): T1 sequence (P40261 whole entry)
Description: Binding affinity to human NNMT (1 to 264 residues) expressed in Escherichia coli BL21 (DE3) assessed as change in enthalpy by isothermal titration calorimetric method

[3] = biological target: T1, Nicotinamide N-methyltransferase; experiment: Binding affinity to human NNMT (1 to 264 residues) expressed in Escherichia coli BL21 (DE3) by isothermal titration calorimetric method
[4] = biological target: T3, Protein arginine N-methyltransferase 7 (Homo sapiens, UniProt Q9NVM4); experiment: Inhibition of PRMT7 (unknown origin) using [3H]-SAM as co-factor by scintillation proximity assay
T3 sequence (Q9NVM4 whole entry): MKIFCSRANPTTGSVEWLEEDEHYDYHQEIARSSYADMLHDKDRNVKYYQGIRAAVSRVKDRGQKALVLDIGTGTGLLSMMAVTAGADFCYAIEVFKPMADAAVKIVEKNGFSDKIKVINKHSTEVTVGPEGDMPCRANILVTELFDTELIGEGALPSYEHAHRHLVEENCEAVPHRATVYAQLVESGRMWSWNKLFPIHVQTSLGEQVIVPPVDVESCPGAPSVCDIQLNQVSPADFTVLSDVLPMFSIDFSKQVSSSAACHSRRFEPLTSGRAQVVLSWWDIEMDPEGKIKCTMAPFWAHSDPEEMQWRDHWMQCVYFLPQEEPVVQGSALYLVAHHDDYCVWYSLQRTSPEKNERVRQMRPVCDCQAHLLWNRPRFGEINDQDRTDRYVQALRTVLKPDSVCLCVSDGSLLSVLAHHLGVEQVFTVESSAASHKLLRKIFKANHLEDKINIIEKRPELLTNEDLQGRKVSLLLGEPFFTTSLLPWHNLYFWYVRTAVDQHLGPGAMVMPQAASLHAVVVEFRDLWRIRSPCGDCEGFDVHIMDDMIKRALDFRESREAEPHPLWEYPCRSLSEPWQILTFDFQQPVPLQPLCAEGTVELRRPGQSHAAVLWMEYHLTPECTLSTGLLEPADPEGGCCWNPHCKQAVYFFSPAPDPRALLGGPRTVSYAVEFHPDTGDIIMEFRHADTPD

[5] = biological target: T4, RNA 5'-monophosphate methyltransferase (Homo sapiens, UniProt Q7Z5W3); experiment: Inhibition of BCDIN3D (unknown origin) using [3H]-SAM as co-factor by scintillation proximity assay
T4 sequence (Q7Z5W3 whole entry): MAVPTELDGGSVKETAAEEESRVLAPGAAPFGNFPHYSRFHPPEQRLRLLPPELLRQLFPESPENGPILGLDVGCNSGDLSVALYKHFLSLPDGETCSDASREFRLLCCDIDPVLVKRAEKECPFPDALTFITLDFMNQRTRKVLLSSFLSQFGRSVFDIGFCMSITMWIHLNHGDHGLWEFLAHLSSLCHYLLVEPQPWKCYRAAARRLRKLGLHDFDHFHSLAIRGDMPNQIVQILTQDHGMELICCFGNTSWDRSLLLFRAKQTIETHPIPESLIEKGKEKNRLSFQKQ

[6] = biological target: T2, Nicotinamide N-methyltransferase (Homo sapiens); experiment: Nonompetitive inhibition of human NNMT (1 to 264 residues) expressed in Escherichia coli BL21 (DE3) at 1 to 250 uM measured for 20 mins in presence of varying concentration of nicotinamide by Lineweaver-Burk plot analysis
[7] = biological target: N-lysine methyltransferase SMYD2 (Homo sapiens, UniProt Q9NRG4); experiment: Inhibition of SMYD2 (unknown origin) using [3H]-SAM as co-factor by scintillation proximity assay
[8] = biological target: T2, Nicotinamide N-methyltransferase (Homo sapiens); remark: listed apart in the source
Description: Binding affinity to human NNMT (1 to 264 residues) expressed in Escherichia coli BL21 (DE3) assessed as change in entropy by isothermal titration calorimetric method

[9] = biological target: Histone-lysine N-methyltransferase, H3 lysine-79 specific (Homo sapiens, UniProt Q8TEK3); experiment: Inhibition of DOT1L (unknown origin) after 1 hr by filter-based assay
[10] = biological target: T2, Nicotinamide N-methyltransferase (Homo sapiens); experiment: Competitive inhibition of human NNMT (1 to 264 residues) expressed in Escherichia coli BL21 (DE3) at 1 to 250 uM measured for 20 mins in presence of varying concentration of SAM by Lineweaver-Burk plot analysis

Sequence of Histone-lysine N-methyltransferase, H3 lysine-79 specific (Q8TEK3 whole entry, the tested form may be a part): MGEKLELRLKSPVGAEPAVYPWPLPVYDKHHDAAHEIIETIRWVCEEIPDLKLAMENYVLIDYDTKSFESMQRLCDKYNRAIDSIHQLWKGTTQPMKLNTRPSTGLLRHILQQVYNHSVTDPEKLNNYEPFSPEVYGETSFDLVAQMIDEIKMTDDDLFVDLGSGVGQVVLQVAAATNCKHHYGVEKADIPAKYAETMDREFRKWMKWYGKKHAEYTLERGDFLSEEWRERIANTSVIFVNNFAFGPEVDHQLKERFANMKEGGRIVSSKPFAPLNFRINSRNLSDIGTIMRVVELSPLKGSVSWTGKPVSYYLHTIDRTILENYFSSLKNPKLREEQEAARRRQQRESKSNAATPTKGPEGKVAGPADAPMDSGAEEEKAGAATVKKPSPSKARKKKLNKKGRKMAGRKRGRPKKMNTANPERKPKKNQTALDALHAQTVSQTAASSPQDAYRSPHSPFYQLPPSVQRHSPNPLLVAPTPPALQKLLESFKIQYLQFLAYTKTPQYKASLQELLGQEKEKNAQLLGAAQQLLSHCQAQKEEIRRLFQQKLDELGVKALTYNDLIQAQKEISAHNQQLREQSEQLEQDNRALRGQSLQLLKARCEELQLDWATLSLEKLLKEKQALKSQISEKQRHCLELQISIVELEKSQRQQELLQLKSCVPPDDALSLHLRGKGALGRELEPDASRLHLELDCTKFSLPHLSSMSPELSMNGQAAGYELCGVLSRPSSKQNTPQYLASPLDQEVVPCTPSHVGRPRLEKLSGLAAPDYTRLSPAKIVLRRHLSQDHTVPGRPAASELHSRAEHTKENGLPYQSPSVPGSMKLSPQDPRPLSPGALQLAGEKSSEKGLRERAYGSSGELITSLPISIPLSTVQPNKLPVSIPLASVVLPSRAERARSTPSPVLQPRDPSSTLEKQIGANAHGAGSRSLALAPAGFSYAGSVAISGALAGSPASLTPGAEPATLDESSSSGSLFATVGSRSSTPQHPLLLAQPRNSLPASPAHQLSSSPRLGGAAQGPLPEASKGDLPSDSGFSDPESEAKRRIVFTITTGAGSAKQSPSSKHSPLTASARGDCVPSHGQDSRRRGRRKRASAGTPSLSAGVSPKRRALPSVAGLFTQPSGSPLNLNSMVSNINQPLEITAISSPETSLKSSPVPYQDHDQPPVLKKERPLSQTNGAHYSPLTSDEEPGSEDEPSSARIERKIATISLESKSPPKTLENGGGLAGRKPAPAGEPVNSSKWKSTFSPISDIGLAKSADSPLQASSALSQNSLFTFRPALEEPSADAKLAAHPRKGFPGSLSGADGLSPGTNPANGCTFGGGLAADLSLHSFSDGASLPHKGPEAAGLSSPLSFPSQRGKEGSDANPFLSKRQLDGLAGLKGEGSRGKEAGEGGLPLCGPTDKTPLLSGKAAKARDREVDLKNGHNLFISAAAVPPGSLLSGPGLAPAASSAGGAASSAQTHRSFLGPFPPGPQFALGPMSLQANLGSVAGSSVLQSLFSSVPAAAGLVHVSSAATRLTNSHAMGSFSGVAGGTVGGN
Sequence of N-lysine methyltransferase SMYD2 (Q9NRG4 whole entry): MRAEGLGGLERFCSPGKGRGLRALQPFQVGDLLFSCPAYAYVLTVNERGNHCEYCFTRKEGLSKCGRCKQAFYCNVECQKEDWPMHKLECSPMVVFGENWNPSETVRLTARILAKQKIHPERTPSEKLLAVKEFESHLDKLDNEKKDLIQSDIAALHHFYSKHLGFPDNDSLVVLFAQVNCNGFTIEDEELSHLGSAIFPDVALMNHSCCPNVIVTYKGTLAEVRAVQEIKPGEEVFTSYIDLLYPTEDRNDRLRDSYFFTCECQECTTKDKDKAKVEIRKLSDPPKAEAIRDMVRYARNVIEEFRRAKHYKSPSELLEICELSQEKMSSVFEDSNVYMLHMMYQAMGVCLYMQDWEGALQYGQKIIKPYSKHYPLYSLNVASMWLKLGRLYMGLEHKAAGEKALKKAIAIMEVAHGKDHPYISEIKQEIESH

Row | SMILES | IC50 [1] | deltaH [2] | Kd [3] | IC50 [4] | IC50 [5] | inhibition [6] | IC50 [7] | deltaS [8] | IC50 [9] | inhibition [10]
1 | NC(=O)c1cccc(CCN(CCC[C@H](N)C(=O)O)C[C@H]2O[C@@H](n3cnc4c(N)ncnc43)[C@H](O)[C@@H]2O)c1 | 14 µM | -4.6 kcal/mol | 2.7 µM | 20 µM | 40 µM | Active | 62 µM | 10 cal/mol/deg | 1.3 µM | Active
2 | NC(=O)c1cccc(CCN(CC[C@H](N)C(=O)O)C[C@H]2O[C@@H](n3cnc4c(N)ncnc43)[C@H](O)[C@@H]2O)c1 | 160 µM | -2.5 kcal/mol | 42.8 µM |  |  |  |  | 11.4 cal/mol/deg |  | 
